Measurements as given in publication PMC10905995, “Strategy for the Enzymatic Acylation of the Apple Flavonoid Phloretin Based on Prior α-Glucosylation” (Journal of Agricultural and Food Chemistry, 2024).
Values after ≈ are worked out from the molar mass of the structure shown.

Columns and labels:
[1] = In vitro percutaneous absorption, Franz static diffusion cells; assay type: in vitro ADME; details: pig skin biopsies, 24 h exposure; for effect of acylation on skin absorption: versus phloretin and 4′-O-α-glucoside
Method: The study was carried out in vitro with pig biopsies placed on Franz static diffusion cells (3 mL, 1.86 cm^2 of exposed area, […], Lara-Spiral, Courtenon, France) in order to determine the distribution of the active compound (API) at the different skin layers after an exposure time of 24 h. All materials and procedures for this test have been described in a previous report employing phloretin and two glucosides.[33] The concentration of the extracted active compound was determined with the HPLC method described before.
Figure 6 In vitro percutaneous absorption of acylated derivatives of phloretin and their precursors (phloretin and its 4′-O-α-glucoside) within the different skin layers. W is the surface excess, SC is the stratum corneum, E is the epidermis, D is the dermis, FR is the fluid receptor, and Perc. Abs. is the percutaneous absorption. The results are expressed as μg/cm^2 of the active pharmaceutical ingredient (API). Mean values ± standard deviations, n = 3; *p < 0.05 vs phloretin; ^#p < 0.05 vs α-Glc-phloretin.

[2] = Aqueous solubility (saturated conditions, 3 days, UV 297 nm); assay type: physicochemical; details: water, 25 °C, thermodynamic from solid
Method: The compounds were incubated at 25 °C in water (saturated conditions) during 3 days under orbital stirring (1000 rpm). Then, the samples were centrifuged, and the supernatants (200 μL) were analyzed in triplicate in a 96-well plate, using a phloretin calibration curve in methanol (0–200 μg/mL). The absorbance was measured at 297 nm in a UV–vis spectrophotometer (Tecan Infinite M200).

[3] = set-up: method as in doi:10.1002/adsc.202100201; details: cited from earlier work

effect of acylation on skin absorption [1]	solubility at 3 days [2] [µg/mL]	percutaneous absorption, increase versus phloretin and 4′-O-α-glucoside [1]	SMILES	aqueous solubility greater than aglycone ([3]; versus phloretin aglycone) [fold]	solubility ([3]; water, 25 °C, data available in a previous article) [µg/mL]
no significant effect	22.1 ± 0.5 (≈ 39.3 µM)	–	CCCCCCCC(=O)OC[C@H]1O[C@H](Oc2cc(O)c(C(=O)CCc3ccc(O)cc3)c(O)c2)[C@H](O)[C@@H](O)[C@@H]1O [1a, phloretin 4′-O-(6-O-octanoyl)-α-D-glucopyranoside]	–	–
–	6 ± 0.2 (≈ 9.7 µM)	approximately 3 fold	CCCCCCCCCCCC(=O)OC[C@H]1O[C@H](Oc2cc(O)c(C(=O)CCc3ccc(O)cc3)c(O)c2)[C@H](O)[C@@H](O)[C@@H]1O [1b, phloretin 4′-O-(6-O-lauroyl)-α-D-glucopyranoside]	–	–
–	–	–	O=C(CCc1ccc(O)cc1)c1c(O)cc(O[C@H]2O[C@H](CO)[C@@H](O)[C@H](O)[C@H]2O)cc1O [phloretin 4′-O-α-D-glucoside, phloretin 4′-O-α-D-glucopyranoside]	71	1644 ± 101 (≈ 3770 µM)
no significant effect	7.1 ± 0.3 (≈ 10.5 µM)	–	CCCCCCCCCCCCCCCC(=O)OC[C@H]1O[C@H](Oc2cc(O)c(C(=O)CCc3ccc(O)cc3)c(O)c2)[C@H](O)[C@@H](O)[C@@H]1O [1c, phloretin 4′-O-(6-O-palmitoyl)-α-D-glucopyranoside]	–	–
